Test results reported in patent US8952002B2, “Aminoheteroaryl compounds and preparation method and use thereof” (Shanghai Allist Pharmaceuticals, Inc., priority 2012, dated 2015).

Legend:
[1] = target: receptor tyrosine kinase c-Met (c-Met kinase domain recombination protein) (Homo sapiens (Human), UniProt P08581); test: Enzyme linked immunosorbent assay (ELISA) of c-Met kinase activity; assay type: biochemical; conditions: for IC50: c-Met enzyme, ELISA, read-out: IC50 (nM) mean ± SD
Description: The evaluation of the inhibition of the compound of the present invention on the activity of c-Met enzyme in molecular level may be assayed by conventional methods, one preferable evaluation method of which is enzyme-linked immunosorbent assay (ELISA). By measuring the inhibition ratio of the compounds against the activity of receptor tyrosine kinase protein c-Met enzyme, the median inhibitory concentration IC50 is calculated based on the inhibition ratios for various concentrations using the four-parameter method. The inhibition ratio for a sample (%)=(1−(OD value of a compound−OD value of the control well without enzyme)/(OD value of the negative control well−OD value of the control well without enzyme))×100%
(1) The enzyme reaction substrate Poly(Glu, Tyr) 4:1 was diluted to 20 μg/mL, 1254/well coated enzyme label plate with potassium ion-free PBS (10 mM sodium phosphate buffer, 150 mM NaCl, pH7.2-7.4), which was placed at 37° C. to allow to react for 12-16 h. The liquid in the wells was discarded. The plate was washed with 200 μL/well of T-PBS (potassium ion-free PBS containing 0.1% Tween-20) for three times (each for 5 min). The enzyme label plate was placed into a drying oven at 37° C. to dry for 1-2 h.
(2) To each well was added 50 µL of ATP solution diluted with reaction buffer (50 mM HEPES pH 7.4, 50 mM MgCl2, 0.5 mM MnCl2, 0.2 mM Na3VO4, 1 mM DTT), and to each well was added 1 μL of the compounds. When adding the test compounds, 6 concentration gradients were set for each compound (the starting concentrations and dilution times were determined according to the results of preliminary screening so as to ensure that the maximum inhibition ratio was about 80% and the minimum inhibition ratio was about 20%, and more than two concentration points were in the vicinity of 50% inhibition ratio), and then 504 of c-Met kinase domain recombination protein diluted with reaction buffer was added to initiate the reaction. Two ATP-free control wells were needed for each of the experiments. The reaction was placed on a shaking table at 37° C. (100 rpm) for 1 h. The liquid in the wells was discarded and the plate was washed with T-PBS for three times.
(3) The antibody PY99 was added at 1004/well (the antibody was diluted with T-PBS containing BSA (5 mg/mL) in 1:500). The reaction was performed on a shaking table at 37° C. for 0.5 h. The liquid in the wells was discarded and the plate was washed with T-PBS for three times.
(4) The horseradish peroxidase-labeled goat anti-mouse secondary antibody was added at 100 μL/well (the antibody was diluted with T-PBS containing BSA (5 mg/mL) in 1:2000), The reaction was performed on a shaking table at 37° C. for 0.5 h. The liquid in the wells was discarded and the plate was washed with T-PBS for three times.
(5) 2 mg/ml of OPD colour developing solution (diluted with 0.1M citric acid-sodium citrate buffer (pH=5.4) containing 0.03% H2O2) was added at 1004/well, and the reaction was performed at 25° C. for 1-10 min under protection from light.
(6) 2M H2SO4 was added at 50 μL/well to terminate the reaction, and the values were read by a microplate reader VERSAmax with adjustable wavelength, wherein the wavelength was 490 nm. Through calculation, the inhibitory IC50 values of the compounds of Example 2, 12 and 13 against the activity of receptor tyrosine kinase c-Met enzyme were obtained as: […]

[2] = test system: human breast cancer cells (MDA-MB-231); test: SRB proliferation assay, human breast cancer cells (MDA-MB-231); assay type: cell-based; conditions: MDA-MB-231, 72 hr, read-out: IC50 against MDA-MB-231 cells
From the text: (§1) The pharmacodynamic action of the compound of the present invention in terms of inhibiting the proliferation of cancer cells may be assayed by conventional methods, one preferable evaluation method of which is Sulforhodamine B (SRB) protein staining method, which calculates the inhibition ratio of a drug against the proliferation of cancer cells through measuring the change in optical absorption value generated after the drug has influenced the cancer cells. Inhibition ratio (%)=(OD control−OD inhibitor−OD blank)/(OD control−OD blank)×100%
OD control: the OD value of the well of normally grown cells without the action of a drug.
OD inhibitor: the OD value of the well of cells with the action of added compounds to be screened.
OD blank: the OD value of the well of parallel control without seeding cells.
(§2) The median inhibitory concentration (IC50) value is obtained by the software GraphPad Prism 5 through calculation.
The human breast cancer cells in the logarithmic phase were inoculated to 96-well culture plates (180 μl/well) at a density of about 5500/well. The well for each concentration was triplicated. Solvent control wells of corresponding concentrations and apoptosis-free wells were also established. […]

[3] = test system: human colon cancer cells (HT-29); test: SRB proliferation assay, human colon cancer cells (HT-29); assay type: cell-based; conditions: HT-29, 72 hr, read-out: IC50 against HT-29 cells
From the text: as §1, §2
(§3) The human breast cancer cells in the logarithmic phase were inoculated to 96-well culture plates (180 μl/well) at a density of about 5500/well. The well for each concentration was triplicated. Solvent control wells of corresponding concentrations and apoptosis-free wells were also established. After adherent growth for 24 hr, the compounds of the present invention were added at 20 μl/well, and the cells were cultured for 72 hr under the conditions of 10% Hyclone fetal calf serum, 37° C., 5% CO2. […]
According to the experimental method of Test Example 1, the IC50 value of the compound of the present invention against HT-29 cells was calculated as: […]

[4] = test system: human lung cancer cells (H1975); test: SRB proliferation assay, human lung cancer cells (H1975); assay type: cell-based; conditions: NCI-H1975, H1975, 72 hr, read-out: IC50 against H1975 cells
From the text: as §1, §2, §3
According to the experimental method of Test Example 1, the IC50 value of the compound of the present invention against H1975 cells was calculated as: […]

c-Met receptor = c-Met receptor (Homo sapiens (Human), UniProt P08581); test: Western blot test of c-Met phosphorylation in EGF-stimulated H1975 cells; assay type: cell-based; conditions: EGF induction, 1 μM and 5 μM, 6 hr
Description: The human lung cancer cells (H1975) in the logarithmic phase were inoculated to 6-well culture plates at a density of about 4×10^5/well. The cells were adherently grown for 24 hr. Four wells were selected, wherein two wells were added with the compound of Example 2 respectively (1 μM/well and 5 μM/well). The other two wells were not added with drugs. The cells were cultured for 6 hr under the conditions of 10% Hyclone fetal calf serum, 37° C., 5% CO2. EGF was added to the above two wells and one of the drug-free well to stimulate for 15 min. After the cells were washed with cold PBS, sample loading buffer (2×SDS Lysis Buffer+1M DTT+H2O) was added to lyse the cells. The lysate of the cells was heated for 10 min at 100° C., centrifuged for 5 min at 12000 g, and the supernatant was took out. The supernatant was subjected to SDS-PAGE electrophoretic analysis. At 25 mA constant current, after wetly transferred for 2 h, the proteins were transferred to PVDF (polyvinylidine difluoride) membrance. The PVDF membrance was took out, incubated with the corresponding primary antibody (pMet) at 4° C. overnight. […] After washing with TBST for 3 times, images were developed with ECL luminescence kit, and were mounted. […]

receptor tyrosine kinase c-Met (c-Met kinase domain recombination protein), sequence (P08581 1078-1345): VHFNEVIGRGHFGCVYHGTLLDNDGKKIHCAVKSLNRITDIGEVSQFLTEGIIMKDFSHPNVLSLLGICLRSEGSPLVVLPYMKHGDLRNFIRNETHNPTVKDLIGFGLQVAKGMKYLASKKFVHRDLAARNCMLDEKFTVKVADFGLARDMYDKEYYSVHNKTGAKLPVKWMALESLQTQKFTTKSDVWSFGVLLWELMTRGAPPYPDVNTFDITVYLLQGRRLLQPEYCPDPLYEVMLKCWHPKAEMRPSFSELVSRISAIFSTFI
c-Met receptor, sequence (P08581 25-1390): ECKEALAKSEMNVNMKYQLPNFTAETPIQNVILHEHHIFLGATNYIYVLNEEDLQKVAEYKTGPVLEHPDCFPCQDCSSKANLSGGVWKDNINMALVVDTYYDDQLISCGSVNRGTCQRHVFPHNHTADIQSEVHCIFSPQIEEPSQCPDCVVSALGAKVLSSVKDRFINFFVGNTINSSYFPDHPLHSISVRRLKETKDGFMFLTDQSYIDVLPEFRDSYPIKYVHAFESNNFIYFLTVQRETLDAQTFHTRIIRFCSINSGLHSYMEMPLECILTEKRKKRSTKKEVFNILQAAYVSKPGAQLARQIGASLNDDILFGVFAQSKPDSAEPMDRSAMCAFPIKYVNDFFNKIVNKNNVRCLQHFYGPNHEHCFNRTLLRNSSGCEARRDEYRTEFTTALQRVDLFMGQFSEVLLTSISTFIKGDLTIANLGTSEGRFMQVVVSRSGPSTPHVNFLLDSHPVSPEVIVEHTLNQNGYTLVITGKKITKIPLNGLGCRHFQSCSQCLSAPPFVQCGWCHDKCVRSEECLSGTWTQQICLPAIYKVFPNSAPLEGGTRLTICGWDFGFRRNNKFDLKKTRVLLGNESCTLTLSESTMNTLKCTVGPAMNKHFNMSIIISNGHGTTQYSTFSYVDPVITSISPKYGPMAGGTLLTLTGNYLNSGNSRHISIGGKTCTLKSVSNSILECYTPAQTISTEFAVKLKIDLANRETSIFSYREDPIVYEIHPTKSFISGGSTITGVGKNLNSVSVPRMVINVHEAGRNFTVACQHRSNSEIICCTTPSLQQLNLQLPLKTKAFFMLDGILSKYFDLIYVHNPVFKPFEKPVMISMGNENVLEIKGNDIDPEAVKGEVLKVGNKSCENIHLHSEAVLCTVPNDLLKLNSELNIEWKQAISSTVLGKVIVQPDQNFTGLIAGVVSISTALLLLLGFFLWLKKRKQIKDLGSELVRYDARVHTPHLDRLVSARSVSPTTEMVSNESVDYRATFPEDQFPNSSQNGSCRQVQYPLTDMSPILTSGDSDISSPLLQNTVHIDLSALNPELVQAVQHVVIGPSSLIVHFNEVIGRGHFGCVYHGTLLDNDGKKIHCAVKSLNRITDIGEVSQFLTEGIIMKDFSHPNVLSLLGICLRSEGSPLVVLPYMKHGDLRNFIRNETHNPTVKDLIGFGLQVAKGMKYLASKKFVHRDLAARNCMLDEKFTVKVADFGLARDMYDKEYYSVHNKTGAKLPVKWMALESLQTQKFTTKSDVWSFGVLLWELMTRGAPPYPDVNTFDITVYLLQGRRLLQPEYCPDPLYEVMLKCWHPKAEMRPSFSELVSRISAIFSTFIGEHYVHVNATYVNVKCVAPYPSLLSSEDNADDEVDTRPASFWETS

Row | Compound | Average inhibition ratio (%) ([1]; 0.8 nM) | Average inhibition ratio (%) ([1]; 2 nM) | Average inhibition ratio (%) ([1]; 7 nM) | Average inhibition ratio (%) ([1]; 22 nM) | Average inhibition ratio (%) ([1]; 66 nM) | Average inhibition ratio (%) ([1]; 200 nM) | IC50 [1] [nM] | IC50 [2] [nM] | IC50 [3] [nM] | IC50 [4] [nM] | inhibition of the phosphorylation of c-Met receptor (c-Met receptor)
1 | C[C@H](Oc1cc(-c2cn(C3CCNCC3)nn2)cnc1N)c1c(Cl)ccc(F)c1Cl [Example 12] | 7.9 | 18.2 | 39.8 | 61.7 | 76.3 | 77.5 | 11.7 ± 2.3 | – | – | – | –
2 | C[C@@H](Oc1cc(-c2cn(C3CCNCC3)nn2)cnc1N)c1c(Cl)ccc(F)c1Cl [Example 13, (R)-3-(1-(2,6-dichloro-3-fluorophenyl)ethoxy)-5-(1-(piperidin-4-yl)-1H-1,2,3-triazol-4-yl)-2-aminopyridine] | 31.1 | 62.2 | 67.7 | 79.7 | 88.0 | 88.2 | 1.7 ± 0.4 | – | – | – | –
3 | CC(Oc1cc(-c2cn(C3CCNCC3)nn2)cnc1N)c1c(Cl)ccc(F)c1Cl (stereo not shown) [Example 2, 3-(1-(2,6-dichloro-3-fluorophenyl)ethoxy)-5-(1-(piperidin-4-yl)-1H-1,2,3-triazol-4-yl)-2-aminopyridine] | 8.4 | 26.9 | 51.0 | 69.9 | 76.8 | 78.0 | 6.7 ± 2.3 | 9530 | 5260 | 11700 | effectively inhibit
